Patent US9937225B2, “Topical formulations and uses thereof” (OCULAR TECHNOLOGIES SARL, priority 2012, dated 2018)

Key:
[1] = Ocular tissue distribution of compound 1001 nanomicellar formulations (LC-MS/MS); assay type: in vivo, New Zealand White Rabbits; details: rabbits, topical ocular administration
Experimental: A study was conducted in rabbits to test the tolerance and ocular tissue distribution of two nanomicellar formulations of compound 1001 (RX10045) against matching placebos (Table 6a and 6b) and balanced saline solution (BSS). Healthy New Zealand female white rabbits (2-3 kg) were used for this study. One drop (approximately 35 μL) of study drug was applied o.d. 4×/day at two hour intervals for 5 days. One drop of BSS was applied to the contralateral eye.
Selected ocular fluids/tissues (aqueous humor, vitreous humor, conjunctiva, cornea, iris-ciliary body, lens, retina/choroid, and sclera) collected from two rabbits each in the RX-10045 (0.15% in HCO-60, 0.1% in HCO-40) treatment groups, and from one rabbit in each of the matching placebo groups, were assayed for compound 1001 and another resolvin by liquid chromatography-tandem mass spectrometry (LC-MS/MS). Warfarin-d5 and 5-HDA were used as internal standards for the analysis of RX-10045 and its active metabolite, RX-10008, respectively, in aqueous humor and vitreous humor. For the other ocular tissues (solid tissues), warfarin-d5 and phenyl acetic acid-d5 (PAA-d5) were used as the internal standards for compound 1001 and RX-10008, respectively. The analytical range for the solid tissues were 0.125-100 ng. The results of the solid tissue analyses were converted to ng/g by correcting for the amount of tissue analyzed.

[2] = Visual appearance of mixed nanomicellar formulation; assay type: physicochemical; details: for Final formulation / Resuspend in water / Final formulation (make up with 2X buffer containing 0.01% Oc-40): 1001 4 wt %; for Result: solvent evaporation, HCO-60 4 wt %, Octoxynol-40 0.01 wt %
Experimental: Mixed nanomicellar formulation encapsulating compound 1001 was prepared by solvent evaporation method in two steps: 1) Preparation of basic formulation and 2) rehydration. In step one, compound 1001, HCO-60 and octoxynol-40 were dissolved separately in 0.3 mL of ethyl acetate. These three solutions were mixed together in 15-mL centrifuge tube. The resultant mixture was vortexed to obtain a homogenous solution. Ethyl acetate solvent was removed with speed vacuum to obtain a solid thin film. The residue was kept overnight under high vacuum at room temperature to remove residual organic solvent. In step two, the resultant thin film was hydrated with 1 mL of double distilled deionized water by vortexing the solution. The rehydrated formulation was suspended in 2× phosphate buffer solution, (pH 6.5). It was filtered through 0.2 μm nylon filter membrane to remove the unentrapped drug aggregates and other foreign particulates. […]
The preparation of MNF encapsulating compound 1001 (neat oil) can be divided into two steps. As an example for the development of 3.0 wt % HCO-40 or HCO-60 MNF encapsulating 0.4% compound 1001 is described below. […] To this melt polymer compound 1001 (˜20 mg), thermostated at 40° C., was added and mixed for homogenous distribution. […] (in refrigerator).
This aqueous solution was allowed to reach room temperature, under natural conditions. The pH of the solution was adjusted to 5.5 and the volume was made up with 2× phosphate buffer saline (pH 5.5) containing octoxynol-40 (0.01 wt %) and PVP-K-90 (1.2 wt %). The formulation was filtered through 0.2 μm nylon filter to remove any foreign material and obtain a clear homogenous aqueous RX-1001 formulation.
The results obtained for physical appearance of the mixture, different phases, at different temperatures and appearance of final formulation are summarized in Tables 2a-2c. […]

[3] = melt at 40° C., cooled to room temperature, HCO-40 0.5 wt %
[4] = melt at 40° C., cooled to room temperature, HCO-40 0.75 wt %
[5] = melt at 40° C., cooled to room temperature, HCO-40 1.0 wt %
[6] = melt at 40° C., cooled to room temperature, HCO-40 1.25 wt %
[7] = melt at 40° C., cooled to room temperature, HCO-40 1.5 wt %
[8] = melt at 40° C., cooled to room temperature, HCO-40 1.75 wt %
[9] = melt at 40° C., cooled to room temperature, HCO-40 2.0 wt %
[10] = melt at 40° C., cooled to room temperature, HCO-40 2.25 wt %
[11] = melt at 40° C., cooled to room temperature, HCO-40 2.5 wt %
[12] = melt at 40° C., cooled to room temperature, HCO-40 2.75 wt %
[13] = melt at 40° C., cooled to room temperature, HCO-40 3.0 wt %
[14] = melt at 40° C., cooled to room temperature, HCO-40 4.0 wt %

Compound: C#CC[C@@H](O)/C=C/C=C/C#C[C@@H](O)CCCC(=O)OC(C)C [compound 1001]
- Hydrolysis to active metabolite RX-10008 in ocular tissues [1]: rapidly hydrolyzed
- Final formulation [2, 3]: Emulsion
- Resuspend in water [2, 3]: Emulsion
- Final formulation [2, 4]: Emulsion
- Resuspend in water [2, 4]: Emulsion
- Final formulation [2, 5]: Emulsion
- Resuspend in water [2, 5]: Emulsion
- Final formulation [2, 6]: Emulsion
- Resuspend in water [2, 6]: Emulsion
- Final formulation [2, 7]: Emulsion
- Resuspend in water [2, 7]: Emulsion
- Final formulation [2, 8]: Emulsion
- Resuspend in water [2, 8]: Emulsion
- Final formulation [2, 9]: Emulsion
- Resuspend in water [2, 9]: Emulsion
- Final formulation [2, 10]: Emulsion
- Resuspend in water [2, 10]: Emulsion
- Final formulation [2, 11]: Yellow color
- Resuspend in water [2, 11]: Yellow
- Final formulation [2, 12]: Pale yellow
- Resuspend in water [2, 12]: Pale yellow
- Final formulation [2, 13]: Clear
- Resuspend in water [2, 13]: Clear
- Final formulation [2, 14]: Clear
- Resuspend in water [2, 14]: Clear
- Resuspend in water ([2]; melt cooled to 25° C., placed at 4° C., back to room temperature, water at 40° C., HCO-40 0.5 wt %): Emulsion
- Resuspend in water ([2]; melt cooled to 25° C., placed at 4° C., back to room temperature, water at 40° C., HCO-40 0.75 wt %): Emulsion
- Resuspend in water ([2]; melt cooled to 25° C., placed at 4° C., back to room temperature, water at 40° C., HCO-40 1.0 wt %): Emulsion
- Resuspend in water ([2]; melt cooled to 25° C., placed at 4° C., back to room temperature, water at 40° C., HCO-40 1.25 wt %): Emulsion
- Resuspend in water ([2]; melt cooled to 25° C., placed at 4° C., back to room temperature, water at 40° C., HCO-40 1.5 wt %): Emulsion
- Resuspend in water ([2]; melt cooled to 25° C., placed at 4° C., back to room temperature, water at 40° C., HCO-40 1.75 wt %): Emulsion
- Resuspend in water ([2]; melt cooled to 25° C., placed at 4° C., back to room temperature, water at 40° C., HCO-40 2.0 wt %): Emulsion
- Resuspend in water ([2]; melt cooled to 25° C., placed at 4° C., back to room temperature, water at 40° C., HCO-40 2.25 wt %): Emulsion
- Resuspend in water ([2]; melt cooled to 25° C., placed at 4° C., back to room temperature, water at 40° C., HCO-40 2.5 wt %): Yellow
- Resuspend in water ([2]; melt cooled to 25° C., placed at 4° C., back to room temperature, water at 40° C., HCO-40 2.75 wt %): Pale yellow
- Resuspend in water ([2]; melt cooled to 25° C., placed at 4° C., back to room temperature, water at 40° C., HCO-40 3.0 wt %): Clear
- Resuspend in water ([2]; melt cooled to 25° C., placed at 4° C., back to room temperature, water at 40° C., HCO-40 4.0 wt %): Clear
- Final formulation ([2]; melt cooled to 25° C., placed at 4° C., back to room temperature, HCO-40 0.5 wt %): Emulsion
- Final formulation ([2]; melt cooled to 25° C., placed at 4° C., back to room temperature, HCO-40 0.75 wt %): Emulsion
- Final formulation ([2]; melt cooled to 25° C., placed at 4° C., back to room temperature, HCO-40 1.0 wt %): Emulsion
- Final formulation ([2]; melt cooled to 25° C., placed at 4° C., back to room temperature, HCO-40 1.25 wt %): Emulsion
- Final formulation ([2]; melt cooled to 25° C., placed at 4° C., back to room temperature, HCO-40 1.5 wt %): Emulsion
- Final formulation ([2]; melt cooled to 25° C., placed at 4° C., back to room temperature, HCO-40 1.75 wt %): Emulsion
- Final formulation ([2]; melt cooled to 25° C., placed at 4° C., back to room temperature, HCO-40 2.0 wt %): Emulsion
- Final formulation ([2]; melt cooled to 25° C., placed at 4° C., back to room temperature, HCO-40 2.25 wt %): Emulsion
- Final formulation ([2]; melt cooled to 25° C., placed at 4° C., back to room temperature, HCO-40 2.5 wt %): Yellow color
- Final formulation ([2]; melt cooled to 25° C., placed at 4° C., back to room temperature, HCO-40 2.75 wt %): Very pale yellow
- Final formulation ([2]; melt cooled to 25° C., placed at 4° C., back to room temperature, HCO-40 3.0 wt %): Clear
- Final formulation ([2]; melt cooled to 25° C., placed at 4° C., back to room temperature, HCO-40 4.0 wt %): Clear
- Final formulation (make up with 2X buffer containing 0.01% Oc-40) ([2]; melt method, HCO-60 1.0 wt %): Emulsion
- Resuspend in water ([2]; melt method, HCO-60 1.0 wt %, water at 40°): Emulsion
- Final formulation (make up with 2X buffer containing 0.01% Oc-40) ([2]; melt method, HCO-60 2.0 wt %): Pale yellow
- Resuspend in water ([2]; melt method, HCO-60 2.0 wt %, water at 40°): Forms pale
- Final formulation (make up with 2X buffer containing 0.01% Oc-40) ([2]; melt method, HCO-60 2.25 wt %): Pale yellow
- Resuspend in water ([2]; melt method, HCO-60 2.25 wt %, water at 40°): Forms pale
- Final formulation (make up with 2X buffer containing 0.01% Oc-40) ([2]; melt method, HCO-60 2.5 wt %): Pale yellow
- Resuspend in water ([2]; melt method, HCO-60 2.5 wt %, water at 40°): Forms very
- Final formulation (make up with 2X buffer containing 0.01% Oc-40) ([2]; melt method, HCO-60 2.75 wt %): Clear solution
- Resuspend in water ([2]; melt method, HCO-60 2.75 wt %, water at 40°): Forms very
- Final formulation (make up with 2X buffer containing 0.01% Oc-40) ([2]; melt method, HCO-60 3.0 wt %): Clear solution
- Resuspend in water ([2]; melt method, HCO-60 3.0 wt %, water at 40°): Clear solution
- Final formulation (make up with 2X buffer containing 0.01% Oc-40) ([2]; melt method, HCO-60 3.5 wt %): Clear solution
- Resuspend in water ([2]; melt method, HCO-60 3.5 wt %, water at 40°): Clear solution
- Final formulation (make up with 2X buffer containing 0.01% Oc-40) ([2]; melt method, HCO-60 4.0 wt %): Clear solution
- Resuspend in water ([2]; melt method, HCO-60 4.0 wt %, water at 40°): Clear solution
- Result ([2]; 1001 initially added 0.035 wt %): Clear/transparent
- Result ([2]; 1001 initially added 0.070 wt %): Clear/transparent
- Result ([2]; 1001 initially added 0.095 wt %): Clear/transparent
- Result ([2]; 1001 initially added 0.120 wt %): Pale yellow color
- Result ([2]; 1001 initially added 0.250 wt %): Yellow color
- Result ([2]; 1001 initially added 0.300 wt %): Yellow color
- Result ([2]; 1001 initially added 0.400 wt %): Yellow color
